*1 amine or outer side, *2 acyl side, *3 side chain or, on linkers, in order; H or OH if unused. Where a SMILES comes first, the peptide text is derived from it. Bridges are numbered along the chain shown (N, C = ends). [ ]: non-standard residue; d: D form. Phe(3,4,5-F3) = N[C@@H](Cc1cc(F)c(F)c(F)c1)C(=O)O; d(cisHyp) = O=C(O)[C@H]1C[C@@H](O)CN1; NMeF = CN[C@@H](Cc1ccccc1)C(=O)O; X1 = O=C([C@H]1COCCN1[*:1])[*:2]; dPip(4-aza) = O=C(O)[C@H]1CNCCN1; NMeNle = CCCC[C@H](NC)C(=O)O; hSer = N[C@@H](CCO)C(=O)O; Orn = NCCC[C@H](N)C(=O)O
biological target: T1, Human PD-L1/PD-1 (Homo sapiens, UniProt Q9NZQ7); assay: HTRF Human PD-L1/PD-1 binding assay (PD-1-Ig/PD-L1-His); conditions: PD-L1-His 10 nM, PD-1-Ig 20 nM; class symbol; read-out: HTRF Human PD-L1/PD-1 Binding Assay IC50 Range
T1 construct: TVMV protease cleavage site (C); made in house; host or cells: HEK293T cells
How it was run: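 Step 1: compound with PD-L1-His (10 nM final), 15 min. Step 2: PD-1-Ig (20 nM final), 15 min. Step 3: Eu-cryptate anti-Ig (1 nM) plus APC anti-His (20 nM), 30 min equilibration. Signal taken as 665 nm/620 nm ratio.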

T1 sequence (Q9NZQ7 with tags, fused parts or gaps): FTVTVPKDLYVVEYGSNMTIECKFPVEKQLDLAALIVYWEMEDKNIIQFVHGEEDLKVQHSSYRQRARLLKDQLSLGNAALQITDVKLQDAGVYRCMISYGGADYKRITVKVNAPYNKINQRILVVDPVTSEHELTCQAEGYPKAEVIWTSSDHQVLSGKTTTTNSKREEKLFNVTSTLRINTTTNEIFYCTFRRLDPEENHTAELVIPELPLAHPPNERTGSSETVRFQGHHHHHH

| Structure (SMILES) | IC50 [nM] |
| --- | --- |
| CCCC[C@H]1C(=O)N2C[C@H](O)C[C@@H]2C(=O)N[C@@H](CC(=O)O)C(=O)N[C@@H](C(C)C)C(=O)N(C)[C@@H](Cc2ccccc2)C(=O)N[C@@H](CCC(=O)O)C(=O)N2CCNC[C@@H]2C(=O)N[C@@H](Cc2c[nH]c3ccccc23)C(=O)N[C@@H](Cc2ccc(O)cc2)C(=O)N[C@@H](CCCCN)C(=O)N[C@H](C(=O)NCC(N)=O)CSCC(=O)N[C@@H](Cc2cc(F)c(F)c(F)c2)C(=O)N(C)[C@@H](Cc2ccccc2)C(=O)N1C [Example 10164] ({CH2CO}-[Phe(3,4,5-F3)][NMeF][NMeNle][d(cisHyp)]DV[NMeF]E[dPip(4-aza)]WYKCG-NH2; thioether N-13) | 1 to 9.9 |
| CCCC[C@H]1C(=O)N2C[C@H](O)C[C@@H]2C(=O)N[C@@H](CC(=O)O)C(=O)N[C@@H](C(C)C)C(=O)N(C)[C@@H](Cc2ccccc2)C(=O)N[C@@H](CCC(=O)O)C(=O)N2CCNC[C@@H]2C(=O)N[C@@H](Cc2c[nH]c3ccccc23)C(=O)N[C@@H](Cc2ccc(O)cc2)C(=O)N[C@@H](CCO)C(=O)N[C@H](C(=O)NCC(N)=O)CSCC(=O)N[C@@H](Cc2cc(F)c(F)c(F)c2)C(=O)N(C)[C@@H](Cc2ccccc2)C(=O)N1C [Example 10165] ({CH2CO}-[Phe(3,4,5-F3)][NMeF][NMeNle][d(cisHyp)]DV[NMeF]E[dPip(4-aza)]WY[hSer]CG-NH2; thioether N-13) | 1 to 9.9 |
| CCCC[C@H]1C(=O)N2C[C@H](O)C[C@@H]2C(=O)N[C@@H](CC(=O)O)C(=O)N[C@@H](C(C)C)C(=O)N(C)[C@@H](Cc2ccccc2)C(=O)N[C@@H](CCC(=O)O)C(=O)N2CCNC[C@@H]2C(=O)N[C@@H](Cc2c[nH]c3ccccc23)C(=O)N[C@@H](Cc2ccc(O)cc2)C(=O)N[C@@H](CCCN)C(=O)N[C@H](C(=O)NCC(N)=O)CSCC(=O)N[C@@H](Cc2cc(F)c(F)c(F)c2)C(=O)N(C)[C@@H](Cc2ccccc2)C(=O)N1C [Example 10166] ({CH2CO}-[Phe(3,4,5-F3)][NMeF][NMeNle][d(cisHyp)]DV[NMeF]E[dPip(4-aza)]WY[Orn]CG-NH2; thioether N-13) | 1 to 9.9 |
| CCCC[C@H]1C(=O)N2C[C@H](O)C[C@@H]2C(=O)N[C@@H](CC(=O)O)C(=O)N[C@@H](C(C)C)C(=O)N(C)[C@@H](Cc2ccccc2)C(=O)N[C@@H](CCCN)C(=O)N2CCNC[C@@H]2C(=O)N[C@@H](Cc2c[nH]c3ccccc23)C(=O)N[C@@H](Cc2ccc(O)cc2)C(=O)N[C@@H](CCO)C(=O)N[C@H](C(=O)NCC(N)=O)CSCC(=O)N[C@@H](Cc2cc(F)c(F)c(F)c2)C(=O)N(C)[C@@H](Cc2ccccc2)C(=O)N1C [Example 10169] ({CH2CO}-[Phe(3,4,5-F3)][NMeF][NMeNle][d(cisHyp)]DV[NMeF][Orn][dPip(4-aza)]WY[hSer]CG-NH2; thioether N-13) | 1 to 9.9 |
| CCCC[C@H]1C(=O)N2CCC[C@@H]2C(=O)N[C@@H](CC(=O)O)C(=O)N[C@@H](C(C)C)C(=O)N(C)[C@@H](Cc2ccccc2)C(=O)N[C@@H](CC(=O)O)C(=O)N2CCC[C@@H]2C(=O)N[C@@H](Cc2c[nH]c3ccccc23)C(=O)N[C@@H](Cc2ccc(O)cc2)C(=O)N[C@@H](CCCCN)C(=O)N[C@H](C(=O)NCC(N)=O)CSCC(=O)N[C@@H](Cc2cc(F)c(F)c(F)c2)C(=O)N(C)[C@@H](Cc2ccccc2)C(=O)N1C [Example 10171] ({CH2CO}-[Phe(3,4,5-F3)][NMeF][NMeNle][dP]DV[NMeF]D[dP]WYKCG-NH2; thioether N-13) | 10 to 99.9 |

Results, then the compound that gave them:

| IC50 [nM] | Structure (SMILES) |
| --- | --- |
| 1 to 9.9 | CCCC[C@H]1C(=O)N2C[C@H](O)C[C@@H]2C(=O)N[C@@H](CC(=O)O)C(=O)N[C@@H](C(C)C)C(=O)N(C)[C@@H](Cc2ccccc2)C(=O)N[C@@H](CC(=O)O)C(=O)N2CCOC[C@@H]2C(=O)N[C@@H](Cc2c[nH]c3ccccc23)C(=O)N[C@@H](Cc2ccc(O)cc2)C(=O)N[C@@H](CCOC)C(=O)N[C@H](C(=O)NCC(N)=O)CSCC(=O)N[C@@H](Cc2cc(F)c(F)c(F)c2)C(=O)N(C)[C@@H](Cc2ccccc2)C(=O)N1C [Example 10161] ({CH2CO}-[Phe(3,4,5-F3)][NMeF][NMeNle][d(cisHyp)]DV[NMeF]D[X1]WY[hSer](Me)CG-NH2; thioether N-13) |
| 1 to 9.9 | CCCC[C@H]1C(=O)N2C[C@H](O)C[C@@H]2C(=O)N[C@@H](CC(=O)O)C(=O)N[C@@H](C(C)C)C(=O)N(C)[C@@H](Cc2ccccc2)C(=O)N[C@@H](CCCN)C(=O)N2CCOC[C@@H]2C(=O)N[C@@H](Cc2c[nH]c3ccccc23)C(=O)N[C@@H](Cc2ccc(O)cc2)C(=O)N[C@@H](CCOC)C(=O)N[C@H](C(=O)NCC(N)=O)CSCC(=O)N[C@@H](Cc2cc(F)c(F)c(F)c2)C(=O)N(C)[C@@H](Cc2ccccc2)C(=O)N1C [Example 10162] ({CH2CO}-[Phe(3,4,5-F3)][NMeF][NMeNle][d(cisHyp)]DV[NMeF][Orn][X1]WY[hSer](Me)CG-NH2; thioether N-13) |
| 10 to 99.9 | CCCC[C@H]1C(=O)N2C[C@H](O)C[C@@H]2C(=O)N[C@@H](CC(=O)O)C(=O)N[C@@H](C(C)C)C(=O)N(C)[C@@H](Cc2ccccc2)C(=O)N[C@@H](CCC(=O)O)C(=O)N2CCNC[C@@H]2C(=O)N[C@@H](Cc2c[nH]c3ccccc23)C(=O)N[C@@H](Cc2ccc(O)cc2)C(=O)N[C@@H](CC(C)C)C(=O)N[C@H](C(=O)NCC(N)=O)CSCC(=O)N[C@@H](Cc2cc(F)c(F)c(F)c2)C(=O)N(C)[C@@H](Cc2ccccc2)C(=O)N1C [Example 10163] ({CH2CO}-[Phe(3,4,5-F3)][NMeF][NMeNle][d(cisHyp)]DV[NMeF]E[dPip(4-aza)]WYLCG-NH2; thioether N-13) |
| 1 to 9.9 | CCCC[C@H]1C(=O)N2CCNC[C@@H]2C(=O)N[C@@H](CC(=O)O)C(=O)N[C@@H](C(C)C)C(=O)N(C)[C@@H](Cc2ccccc2)C(=O)N[C@@H](CCC(=O)O)C(=O)N2C[C@H](O)C[C@@H]2C(=O)N[C@@H](Cc2c[nH]c3ccccc23)C(=O)N[C@@H](Cc2ccc(O)cc2)C(=O)N[C@@H](CC(C)C)C(=O)N[C@H](C(=O)NCC(N)=O)CSCC(=O)N[C@@H](Cc2cc(F)c(F)c(F)c2)C(=O)N(C)[C@@H](Cc2ccccc2)C(=O)N1C [Example 10167] ({CH2CO}-[Phe(3,4,5-F3)][NMeF][NMeNle][dPip(4-aza)]DV[NMeF]E[d(cisHyp)]WYLCG-NH2; thioether N-13) |
| 1 to 9.9 | CCCC[C@H]1C(=O)N2C[C@H](O)C[C@@H]2C(=O)N[C@@H](CC(=O)O)C(=O)N[C@@H](C(C)C)C(=O)N(C)[C@@H](Cc2ccccc2)C(=O)N[C@@H](Cc2ccc(O)cc2)C(=O)N2CCNC[C@@H]2C(=O)N[C@@H](Cc2c[nH]c3ccccc23)C(=O)N[C@@H](Cc2ccc(O)cc2)C(=O)N[C@@H](CC(C)C)C(=O)N[C@H](C(=O)NCC(N)=O)CSCC(=O)N[C@@H](Cc2cc(F)c(F)c(F)c2)C(=O)N(C)[C@@H](Cc2ccccc2)C(=O)N1C [Example 10168] ({CH2CO}-[Phe(3,4,5-F3)][NMeF][NMeNle][d(cisHyp)]DV[NMeF]Y[dPip(4-aza)]WYLCG-NH2; thioether N-13) |
| 1 to 9.9 | CCCC[C@H]1C(=O)N2CCC[C@@H]2C(=O)N[C@@H](CC(=O)O)C(=O)N[C@@H](C(C)C)C(=O)N(C)[C@@H](Cc2ccccc2)C(=O)N[C@@H](CC(=O)O)C(=O)N2CCC[C@@H]2C(=O)N[C@@H](Cc2c[nH]c3ccccc23)C(=O)N[C@@H](Cc2ccc(O)cc2)C(=O)N[C@@H](CCO)C(=O)N[C@H](C(=O)NCC(N)=O)CSCC(=O)N[C@@H](Cc2cc(F)c(F)c(F)c2)C(=O)N(C)[C@@H](Cc2ccccc2)C(=O)N1C [Example 10170] ({CH2CO}-[Phe(3,4,5-F3)][NMeF][NMeNle][dP]DV[NMeF]D[dP]WY[hSer]CG-NH2; thioether N-13) |
